According to US20250257064A1, “TRIFLUOROMETHYL-SUBSTITUTED SULFONAMIDE AS BCL-2-SELECTIVE INHIBITOR” (Chia Tai Tianqing Pharmaceutical Group Co., Ltd., priority 2018, published 2025):

Tests used:
RS4;11 cells = assay: Inhibitory effect on proliferation of RS4;11 cells (CCK-8); assay type: cell-based, human
How it was run: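 RS4;11 cells were seeded at 1×10^5 cells/mL in RPMI with 5% FBS and incubated 24 h at 37° C, 5% CO2 before compound addition in duplicate. Inhibition was calculated against untreated and blank controls. IC50 came from a four-parameter fit of log concentration versus inhibition.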

[1] = tested on: human platelet Caspase-3 activity; assay: Human platelet toxicity experiment (Caspase-3 activity assay); assay type: cell-based; details: 90 min, data normalized, reference ABT-199
Experimental: Experimental Example 6: Human Platelet Toxicity Experiment (Caspase-3 Activity Assay)
10 mL of human whole blood was collected using a heparin sodium anticoagulation tube, mixed well by turning upside down, and centrifuged at 90 g for 10 min. The supernatant was collected and centrifuged at 1950 g for 10 min. The supernatant was discarded, and the residue was resuspended in 4 mL of PBS, and centrifuged at 1190 g for 5 min, and the procedure was repeated once. The supernatant was discarded, and the platelets were resuspended in PBS and adjusted to the density of 2-3×10^8 cells/mL. Cells were seeded into a 96-well plate at a density of 2-3×10^7 cells/mL and at 100 μL/well. 50 μL of control buffer was added to each negative control well, and 50 μL of compound at a corresponding concentration was added to each compound well, so that the final concentration of the compound was 2.5 μM, 2 μM, 1 μM or 0.5 μM, followed by incubation in an incubator at 37° C. for 90 min. The liquids in the 96-well plate were transferred to 1.5 mL centrifuge tubes, respectively. The tubes were centrifuged at 4° C. and 6000 g for 5 min, and placed on ice for later use after the supernatant was discarded. 5× lysis buffer was diluted into 1× lysis buffer with water in the kit, and protease inhibitor cocktail was added at a 1:200 ratio to prepare a lysis mixture for later use. 40 μL of lysis mixture was added to each centrifuge tube, and the platelets at the bottom were resuspended using a pipette. The suspension was lysed on ice for 15-20 min and centrifuged at 4° C. and 14,000 g for 10 min. The sample was sub-packaged for later use. 10× assay buffer was diluted into 1× assay buffer with water in the kit, and substrate Ac-DEVD-AMC was added at a 1:600 ratio to prepare a reaction mixture. 5 μL of assay buffer and 40 μL of reaction mixture were added to each blank control well. 5 μL of control platelet lysate and 40 μL of reaction mixture were added to each negative control well. 5 μL of platelet lysate and 40 μL of reaction mixture were added to each compound well. In this procedure, 40 μL of reaction mixture was added at last. The resulting mixture was mixed gently, and the plate was read by a PE Envision multi-functional microplate reader (excitation: 360 nm, emission: 460 nm) once every 10 min for 6 times. Caspase-3 activity was determined based on the intensity of the released AMC fluorescence, that is the slope of the fitted line to which each well corresponds represents Caspase activity (all data were normalized and the reference was ABT-199).

BCL-XL/BAK = target: T1, BCL-XL/BAK (Homo sapiens, UniProt Q07817); assay: Screening on inhibitory activity for BCL-XL/BAK binding (Cisbio HTRF kit)
T1 construct: purchased Cisbio
T1 sequence (Q07817 whole entry, species assumed): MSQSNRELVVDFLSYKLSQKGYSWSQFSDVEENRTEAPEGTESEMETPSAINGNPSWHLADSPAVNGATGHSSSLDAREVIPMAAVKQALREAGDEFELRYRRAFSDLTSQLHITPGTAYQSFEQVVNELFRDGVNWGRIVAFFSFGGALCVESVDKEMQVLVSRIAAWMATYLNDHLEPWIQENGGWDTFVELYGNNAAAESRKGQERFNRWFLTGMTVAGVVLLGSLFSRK
How it was run: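 Tag1-BCL-XL and Tag2-BAK (2 nM and 80 nM before mixing) were combined with compounds at final 2000–0.488 nM (4-fold, 7 points, duplicates) for 15 min at 25° C. Eu3+ anti-Tag1 and XL665 anti-Tag2 were then added for ≥2 h at 25° C. HTRF (620/665 nm) gave IC50 by four-parameter fit.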

BCL-2/BAK = target: T2, BCL-2/BAK (Homo sapiens, UniProt P10415); assay: Screening on inhibitory activity for BCL-2/BAK binding (Cisbio HTRF kit)
T2 construct: purchased Cisbio
T2 sequence (P10415 whole entry, species assumed): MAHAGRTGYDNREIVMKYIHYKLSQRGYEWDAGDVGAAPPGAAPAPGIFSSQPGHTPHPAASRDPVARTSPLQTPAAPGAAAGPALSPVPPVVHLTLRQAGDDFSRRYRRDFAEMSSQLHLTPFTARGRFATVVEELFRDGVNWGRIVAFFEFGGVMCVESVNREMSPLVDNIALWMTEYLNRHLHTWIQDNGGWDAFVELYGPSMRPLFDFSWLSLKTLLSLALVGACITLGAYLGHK
How it was run: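 HTRF competition assay: Tag1-BCL-2 and Tag2-BAK working dilutions were 5 nM and 120 nM. Compound (200–0.0488 nM final, 4-fold, 7 points, duplicates) was incubated with the proteins for 15 min at 25 °C, then with Eu-cryptate/XL665 antibodies for ≥2 h at 25 °C. IC50 was derived from a four-parameter fit.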

[2] = In vitro stability in rat liver microsomes; assay type: in vitro ADME; details: 1 μM
Experimental: (§1) Experimental Example 3: In Vitro Stability in Liver Microsome
(§2) 300 μL of the final incubation system contains 30 μL of liver microsomes (protein concentration: 5 mg/mL), 30 μL of NADPH+MgCl2, 3 μL of the test compound (in acetonitrile), and 237 μL of PBS buffer (pH 7.4), wherein the proportion of the organic solvent (acetonitrile) is 1% (volume ratio). Two duplicate samples were prepared for each specie (mouse, rat and human), and each sample was 0.3 mL. Each tube which was added with 270 μL of a mixed solution of substrate and enzyme, and NADPH, after being pre-incubated at 37° C. for 5 min, was added with 30 μL of NADPH+MgCl2 and mixed. Then 50 μL of the mixture was taken at 0 min, 15 min, 30 min and 60 min, and added with 300 μL of glacial acetonitrile containing an internal standard to terminate the reaction.
(§3) 50 μL of the incubated sample was added with 300 μL of glacial acetonitrile containing an internal standard (20 ng/mL diazepam) for precipitation, vortexed for 5 min, and centrifuged (13,000 rpm, 20° C.) for 10 min. 70 μL of supernatant was taken and diluted with 70 μL of ultrapure water. After being mixed well, 1 μL of the resulting sample was injected for analysis.

[3] = In vitro stability in human liver microsomes; assay type: in vitro ADME; details: 1 μM
Experimental: as §1, §2, §3

[4] = In vitro stability in mouse liver microsomes; assay type: in vitro ADME; details: 1 μM
Experimental: as §1, §2, §3

| SMILES | IC50 (RS4;11 cells; Homo sapiens, RS4-11, 72 h) | IC50 (BCL-XL/BAK) | IC50 (BCL-2/BAK) | Rat Residual content after 60 min (%) [2] | Human Residual content after 60 min (%) [3] | Mouse Residual content after 60 min (%) [4] | human platelet Caspase-3 activity, Slope ([1]; compound concentration 0.5 μM) | human platelet Caspase-3 activity, Slope ([1]; compound concentration 2 μM) | IC50 (RS4;11 cells; 72 h) | human platelet Caspase-3 activity, Slope ([1]; compound concentration 1 μM) |
| --- | --- | --- | --- | --- | --- | --- | --- | --- | --- | --- |
| CC(=O)N1CCO[C@H](CNc2ccc(S(=O)(=O)NC(=O)c3ccc(N4CCN(CC5=C(c6ccc(C(F)(F)F)cc6Cl)CC(C)(C)CC5)CC4)cc3Oc3cnc4[nH]ccc4c3)cc2[N+](=O)[O-])C1 [Compound 65-1, (R)-4-(4-{[2-(2-chloro-4-trifluoromethylphenyl)-4,4-dimethylcyclohex-1-enyl]methyl}-piperazin-1-yl)-N-({3-nitro-4-[((4-acetylmorpholin-2-yl)methyl)amino]phenyl}sulfonyl)-2-(1H-pyrrolo[2,3-b]pyridin-5-yloxy)-benzamide] | 1.8 nM | 134 nM | 1.5 nM |  |  |  | 0.44 | 0.43 |  |  |
| CC1(C)CCC(CN2CCN(c3ccc(C(=O)NS(=O)(=O)c4ccc(NC[C@@H]5COCCO5)c([N+](=O)[O-])c4)c(Oc4cnc5[nH]ccc5c4)c3)CC2)=C(c2ccc(C(F)(F)F)cc2Cl)C1 [Compound 7-1] |  | 289 nM | 3.5 nM |  |  |  |  |  | 4.6 nM | 0.48 |
| CC(=O)N1CCOC(CNc2ccc(S(=O)(=O)NC(=O)c3ccc(N4CCN(CC5=C(c6ccc(C(F)(F)F)cc6Cl)CC(C)(C)CC5)CC4)cc3Oc3cnc4[nH]ccc4c3)cc2[N+](=O)[O-])C1 (stereo not drawn) [Compound 9-1, 4-(4-{[2-(2-chloro-4-trifluoromethylphenyl)-4,4-dimethylcyclohex-1-enyl]methyl}-piperazin-1-yl)-N-({3-nitro-4-[((4-acetylmorpholin-2-yl)methyl)amino]phenyl}sulfonyl)-2-(1H-pyrrolo[2,3-b]pyridin-5-yloxy)-benzamide] | 2.7 nM |  | 1.8 nM | 101.7% | 69.8% | 55.7% |  |  |  |  |
| CC1(C)CCC(CN2CCN(c3ccc(C(=O)NS(=O)(=O)c4ccc(NCCC5CCN(CCF)CC5)c([N+](=O)[O-])c4)c(Oc4cnc5[nH]ccc5c4)c3)CC2)=C(c2ccc(C(F)(F)F)cc2Cl)C1 [Compound 20-1, 4-(4-{[2-(2-chloro-4-trifluoromethylphenyl)-4,4-dimethylcyclohex-1-enyl]methyl}-piperazin-1-yl)-N-({3-nitro-4-[(2-(1-(2-fluoroethyl)piperidin-4-yl)ethyl)amino]phenyl}sulfonyl)-2-(1H-pyrrolo[2,3-b]pyridin-5-yloxy)-benzamide] | 3.9 nM |  | 2.1 nM |  |  |  |  |  |  | 0.37 |
| CC1(C)CCC(CN2CCN(c3ccc(C(=O)NS(=O)(=O)c4ccc(NC[C@@H]5CCCOC5)c([N+](=O)[O-])c4)c(Oc4cnc5[nH]ccc5c4)c3)CC2)=C(c2ccc(C(F)(F)F)cc2Cl)C1 [Compound 43-1, (S)-4-(4-{[2-(2-chloro-4-trifluoromethylphenyl)-4,4-dimethylcyclohex-1-enyl]methyl}-piperazin-1-yl)-N-({3-nitro-4-[((tetrahydropyran-3-yl)methyl)amino]phenyl}sulfonyl)-2-(1H-pyrrolo[2,3-b]pyridin-5-yloxy)-benzamide] | 1.9 nM | 121 nM | 1.8 nM |  |  |  | 0.19 | 0.09 |  |  |
| CCS(=O)(=O)N1CCOC(CNc2ccc(S(=O)(=O)NC(=O)c3ccc(N4CCN(CC5=C(c6ccc(C(F)(F)F)cc6Cl)CC(C)(C)CC5)CC4)cc3Oc3cnc4[nH]ccc4c3)cc2[N+](=O)[O-])C1 (stereo not drawn) [Compound 57-1, 4-(4-{[2-(2-chloro-4-trifluoromethylphenyl)-4,4-dimethylcyclohex-1-enyl]methyl}-piperazin-1-yl)-N-({3-nitro-4-[((4-(ethylsulfonyl)morpholin-2-yl)methyl)amino]phenyl}sulfonyl)-2-(1H-pyrrolo[2,3-b]pyridin-5-yloxy)-benzamide] | 2.3 nM | 268 nM | 3.4 nM |  |  |  | 0.08 | 0.04 |  |  |
| COCC(=O)N1CCC(CNc2ccc(S(=O)(=O)NC(=O)c3ccc(N4CCN(CC5=C(c6ccc(C(F)(F)F)cc6Cl)CC(C)(C)CC5)CC4)cc3Oc3cnc4[nH]ccc4c3)cc2[N+](=O)[O-])CC1 [Compound 73-1, 4-(4-{[2-(2-chloro-4-trifluoromethylphenyl)-4,4-dimethylcyclohex-1-enyl]methyl}-piperazin-1-yl)-N-({3-nitro-4-[((1-(2-methoxyacetyl)piperidin-4-yl)methyl)amino]phenyl}sulfonyl)-2-(1H-pyrrolo[2,3-b]pyridin-5-yloxy)-benzamide] | 1.5 nM | 204 nM | 1.6 nM |  |  |  |  |  |  |  |

The next lines start with results.

| IC50 (RS4;11 cells; Homo sapiens, RS4-11, 72 h) | IC50 (BCL-XL/BAK) | IC50 (BCL-2/BAK) | Rat Residual content after 60 min (%) [2] | Human Residual content after 60 min (%) [3] | Mouse Residual content after 60 min (%) [4] | SMILES | human platelet Caspase-3 activity, Slope ([1]; compound concentration 0.5 μM) | human platelet Caspase-3 activity, Slope ([1]; compound concentration 2 μM) | IC50 (RS4;11 cells; 72 h) | human platelet Caspase-3 activity, Slope ([1]; compound concentration 1 μM) |
| --- | --- | --- | --- | --- | --- | --- | --- | --- | --- | --- |
| 3.5 nM |  | 2.5 nM |  |  |  | CCN1CCC(CCNc2ccc(S(=O)(=O)NC(=O)c3ccc(N4CCN(CC5=C(c6ccc(C(F)(F)F)cc6Cl)CC(C)(C)CC5)CC4)cc3Oc3cnc4[nH]ccc4c3)cc2[N+](=O)[O-])CC1 [Compound 19-1, 4-(4-{[2-(2-chloro-4-trifluoromethylphenyl)-4,4-dimethylcyclohex-1-enyl]methyl}-piperazin-1-yl)-N-({3-nitro-4-[(2-(1-ethylpiperidin-4-yl)ethyl)amino]phenyl}sulfonyl)-2-(1H-pyrrolo[2,3-b]pyridin-5-yloxy)-benzamide] |  |  |  | 0.12 |
| 2.9 nM |  | 2 nM |  |  |  | CN1CCC(CCCNc2ccc(S(=O)(=O)NC(=O)c3ccc(N4CCN(CC5=C(c6ccc(C(F)(F)F)cc6Cl)CC(C)(C)CC5)CC4)cc3Oc3cnc4[nH]ccc4c3)cc2[N+](=O)[O-])CC1 [Compound 17-1, 4-(4-{[2-(2-chloro-4-trifluoromethylphenyl)-4,4-dimethylcyclohex-1-enyl]methyl}-piperazin-1-yl)-N-({3-nitro-4-[(3-(1-methylpiperidin-4-yl)propyl)amino]phenyl}sulfonyl)-2-(1H-pyrrolo[2,3-b]pyridin-5-yloxy)-benzamide] |  |  |  | 0.48 |
| 4.3 nM |  | 2.7 nM |  |  |  | CN1CCC(CCNc2ccc(S(=O)(=O)NC(=O)c3ccc(N4CCN(CC5=C(c6ccc(C(F)(F)F)cc6Cl)CC(C)(C)CC5)CC4)cc3Oc3cnc4[nH]ccc4c3)cc2[N+](=O)[O-])CC1 [Compound 18-1, 4-(4-{[2-(2-chloro-4-trifluoromethylphenyl)-4,4-dimethylcyclohex-1-enyl]methyl}-piperazin-1-yl)-N-({3-nitro-4-[(2-(1-methylpiperidin-4-yl)ethyl)amino]phenyl}sulfonyl)-2-(1H-pyrrolo[2,3-b]pyridin-5-yloxy)-benzamide] |  |  |  | 0.31 |
